What was measured:
Format in all cases: in vivo
Septoria tritici = assay: Field test, Septoria tritici on wheat
Protocol: (§1) The trials are carried out under greenhouse (Examples 1 to 32) or field conditions (Examples 33 to 40) in residual or curative applications. The fungicides are applied in single treatments, or in a combination comprising an azolopyrimidine of formula I and a compound selected from the classes (A), (B) and (C) as defined above. The compounds are applied in form of an aqueous spray mix obtained from a concentrated formulation or the technical material.
For the field study formulated Azolopyrimidine A, B or C and formulated compounds from the classes (A), (B) and (C) were used.
(§2) Assessments of the diseases took place at the indicated day after the application of the compounds. Per cent infected leaf area infected was evaluated. The efficacy of the compounds/compounds mixtures to control the diseases was calculated by using the formula given above under item 4: […]
(§3) Synergy was calculated using the % disease control values of specific treatments for the two COLBY formula given hereinabove
The compounds are applied according to good agricultural practice in the form of an aqueous spray mix obtained from a concentrated formulation or the technical material at a rate of 400 l/ha. The disease control is evaluated according to the formula given for the greenhouse tests.
Fungicidal efficacy of the mixture of Azolopyrimidine C+metconazole in the field against Septoria tritici on wheat The tank mix was obtained from an EC formulation containing 150 g Azolopyrimidine C per liter and a SL formulation containing 60 g metconazole per liter. The observed and expected efficacies with different rates are given in Table XXXIVa (19 days after application) and Table XXXIVb (25 days after application):
Fungicidal efficacy of the mixture of (S)-Azolopyrimidine C+kresoxim methyl in the field against Septoria tritici on wheat The tank mix was obtained from a SC formulation containing 100 g (S)-Azolopyrimidine C per liter and a WG formulation containing 500 g kresoxim methyl per kg. The observed and expected efficacies with different rates are given in Tables XXXVa (7 days after application), XXXVb (22 days after application), XXXVc (34 days after application), and XXXVd (41 days after application):
Fungicidal efficacy of the mixture of Azolopyrimidine A and different cereal fungicides the field against Septoria tritici on wheat 15 days after application The tank mix was obtained from an SC formulation containing 100 g Azolopyrimidine A per liter and commercially available formulations of metconazole, epoxiconazole or propiconazole, respectively.

Blumeria graminis [1] = assay: Greenhouse, Blumeria graminis on wheat, 1 day residual
From the text: as §1, with “The” for “The trials are carried out under greenhouse (Examples 1 to 32) or field conditions (Examples 33 to 40) in residual or curative applications. The”
(§4) 1. Seed is planted in 6 cm diameter plastic pots and maintained in the greenhouse.
(§5) 2. When the primary leaf is fully expanded in the case of cereals or several leaves are present in the case of dicots, formulated test compounds are sprayed with a three nozzle overhead fungicide sprayer to near run-off. Alternatively, a single nozzle overhead track sprayer is used for application of the compounds to cereals at a rate of 200 l/ha. Plants are then allowed to air-dry.
(§6) 3. Inoculation precedes treatment in the case of curative evaluations and follows treatment in case of residual evaluations. For inoculation of powdery mildew disease, plants are set up on greenhouse benches with bottom watering mats and inoculated by dusting them with conidia from infected plants. Between inoculation and treatment for curative evaluations and between treatment and inoculation for residual evaluations, plants are maintained in the greenhouse with bottom watering.
(§7) 4. Disease on the foliage as percent leaf area with disease symptoms/signs is evaluated about 7 days after inoculation. In the case of wheat, the tips and bases of the leaves are excluded from the evaluation. [formula]
(§8) 1. Technical compounds are formulated in a solvent/surfactant system consisting of 5% acetone and 0.05% Tween 20 in deionized water. Compounds are dissolved in acetone prior to addition of the water; the Tween 20 can be added through either the acetone or the water. Dilutions are made using the solvent/surfactant system. Formulated compounds are prepared using deionized water.
(§9) 2. Two kinds of controls are included: Plants treated with the solvent/surfactant solution and inoculated (Solvent Blank). Untreated plants which are inoculated (Inoculated Control).
as §2, §3
Fungicidal efficacy of the mixture of Azolopyrimidine C+quinoxyfen (1 day residual)) against Blumeria graminis on wheat The tank mix was obtained from technical material of Azolopyrimidine C and quinoxyfen.
Fungicidal efficacy of the mixture of Azolopyrimidine C+metalaxyl (1 day residual) against Blumeria graminis on wheat The tank mix was obtained from technical material of Azolopyrimidine C and metalaxyl.
Fungicidal efficacy of the mixture of Azolopyrimidine C+famoxadone (1 day residual) against Blumeria graminis on wheat The tank mix was obtained from technical material of Azolopyrimidine C and famoxadone.

Blumeria graminis [2] = assay: Field test, Blumeria graminis on wheat; conditions: 17 days after application
In short: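 Field trial on wheat: formulated products (SC/EC tank mixes, alone or in mixtures) sprayed as aqueous mix at 400 l/ha by good agricultural practice. Percent infected leaf area assessed 15 or 17 days after application; efficacy calculated as disease control, with synergy judged by the Colby formula.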

Blumeria graminis [3] = assay: Greenhouse, Blumeria graminis on barley, 2 days curative
Protocol: as §1, §4, §5, §6, §7, §8, §9, §2, §3
Fungicidal efficacy of the mixture of (S)-Azolopyrimidine C in admixture with Fenhexamid (2 days curative) against Blumeria graminis on barley. The tank mixes were obtained from technical material of (S)-Azolopyrimidine C and Fenhexamid.
Fungicidal efficacy of the mixture of (S)-Azolopyrimidine C in admixture with Azoxystrobin or Trifloxystrobin (2 days curative) against Blumeria graminis on barley. The tank mixes were obtained from technical material of (S)-Azolopyrimidine C and Azoxystrobin or Trifloxystrobin.

Compound: CC(Nc1c(-c2c(F)cc(F)cc2F)c(Cl)nc2ncnn12)C(F)(F)F (stereo not shown) [Azolopyrimidine C, 5-chloro-6-(2,4,6-trifluorophenyl)-7-(1,1,1-trifluoroprop-2-ylamino)-[1,2,4]triazolo[1,5-a]pyrimidine]
- Observed Efficacy (Septoria tritici; Example 34, 19 days after application, dose rate 25 g/ha): 48%
- Observed Efficacy (Septoria tritici; Example 34, 25 days after application, dose rate 50 g/ha): 61%
- Observed Efficacy (Septoria tritici; Example 34, 25 days after application, dose rate 75 g/ha): 13%
- Observed Efficacy (Blumeria graminis [1]; Example 16, dose rate 0.06 ppm): 0%
- Observed Efficacy (Blumeria graminis [1]; Example 16, dose rate 0.25 ppm): 19%
- Observed Efficacy (Blumeria graminis [1]; Example 16, dose rate 1 ppm): 42%
- Observed Efficacy (Blumeria graminis [1]; Example 16, dose rate 4 ppm): 96%
- Observed Efficacy (Blumeria graminis [1]; Example 17, dose rate 0.06 ppm): 0%
- Observed Efficacy (Blumeria graminis [1]; Example 17, dose rate 0.25 ppm): 19%
- Observed Efficacy (Blumeria graminis [1]; Example 17, dose rate 1 ppm): 42%
- Observed Efficacy (Blumeria graminis [1]; Example 17, dose rate 4 ppm): 96%
- Observed Efficacy (Blumeria graminis [1]; Example 18, dose rate 0.06 ppm): 0%
- Observed Efficacy (Blumeria graminis [1]; Example 18, dose rate 0.25 ppm): 19%
- Observed Efficacy (Blumeria graminis [1]; Example 18, dose rate 1 ppm): 42%
- Observed Efficacy (Blumeria graminis [1]; Example 18, dose rate 4 ppm): 96%

Compound: 5-chloro-6-(2,4,6-trifluorophenyl)-7-(1,1,1-trifluoroprop-2-ylamino)-[1,2,4]triazolo[1,5-a]pyrimidine [(S)-Azolopyrimidine C]
- Observed Efficacy (Septoria tritici; (S)-Azolopyrimidine C 75 g/ha alone, 41 days after application, field, wheat): 92
- Observed Efficacy (Septoria tritici; Example 35, 7 days after application, dose rate 25 g/ha): 34%
- Observed Efficacy (Septoria tritici; Example 35, 22 days after application, dose rate 25 g/ha): 74%
- Observed Efficacy (Septoria tritici; Example 35, 22 days after application, dose rate 100 g/ha): 87%
- Observed Efficacy (Septoria tritici; Example 35, 34 days after application, dose rate 50 g/ha): 53%
- Observed Efficacy (Septoria tritici; Example 35, 34 days after application, dose rate 100 g/ha): 70%
- Observed Efficacy (Blumeria graminis [2]; Table XXXVI, (S)-Azolopyrimidine C 25 g/ha alone): 63
- Observed Efficacy (Blumeria graminis [2]; Table XXXVI, (S)-Azolopyrimidine C 50 g/ha alone): 78
- Observed Efficacy (Blumeria graminis [2]; Table XXXVI, (S)-Azolopyrimidine C 75 g/ha alone): 74
- Observed Efficacy (Blumeria graminis [2]; Table XXXVII, (S)-Azolopyrimidine C 25 g/ha alone): 63
- Observed Efficacy (Blumeria graminis [2]; Table XXXVII, (S)-Azolopyrimidine C 50 g/ha alone): 78
- Observed Efficacy (Blumeria graminis [2]; Table XXXVII, (S)-Azolopyrimidine C 75 g/ha alone): 74
- Observed Efficacy (Blumeria graminis [2]; Table XXXVII, (S)-Azolopyrimidine C 100 g/ha alone): 96
- Observed Efficacy (Blumeria graminis [3]; Example 26, dose rate 0.74 ppm): 0%
- Observed Efficacy (Blumeria graminis [3]; Example 26, dose rate 2.2 ppm): 8%
- Observed Efficacy (Blumeria graminis [3]; Example 26, dose rate 6.7 ppm): 29%
- Observed Efficacy (Blumeria graminis [3]; Example 26, dose rate 20 ppm): 37%
- Observed Efficacy (Blumeria graminis [3]; Example 26, dose rate 60 ppm): 60%
- Observed Efficacy (Blumeria graminis [3]; Example 26, dose rate 180 ppm): 86%
- Observed Efficacy (Blumeria graminis [3]; Example 29, dose rate 1.6 ppm): 0%
- Observed Efficacy (Blumeria graminis [3]; Example 29, dose rate 3.1 ppm): 1%
- Observed Efficacy (Blumeria graminis [3]; Example 29, dose rate 6.3 ppm): 15%
- Observed Efficacy (Blumeria graminis [3]; Example 29, dose rate 12.5 ppm): 31%
- Observed Efficacy (Blumeria graminis [3]; Example 29, dose rate 25 ppm): 54%
- Observed Efficacy (Blumeria graminis [3]; Example 29, dose rate 50 ppm): 73%
